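Results reflect a 48-hour exposure of cells in 96-well plates to compound at five concentrations. The concentration for 50% growth inhibition is given as GI50. TGI denotes the concentration required for complete inhibition of growth.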
What was measured:
Test in all cases: NCI-60 cell line screen, 48 h
[1] = tested on: HL-60(TB) leukemia
[2] = tested on: SN12C renal
[3] = tested on: SF-539 CNS
[4] = tested on: RXF 393 renal
[5] = tested on: HCC-2998 colon
[6] = tested on: COLO 205 colon
[7] = tested on: SK-OV-3 ovarian
[8] = tested on: KM12 colon

Structure (SMILES): O=c1cc(O)c2c(O)cc(O)cc2o1
- TGI [1]: > 100 µM
- TGI [2]: > 100 µM
- TGI [3]: > 100 µM
- TGI [4]: > 100 µM
- TGI [5]: > 100 µM
- TGI [6]: > 100 µM

Structure (SMILES): Nc1nc(-c2cc(-c3cccc4ccccc34)nc(N)n2)cc(-c2cccc3ccccc23)n1
- TGI [1]: > 100 µM
- TGI [2]: > 100 µM
- TGI [3]: > 100 µM
- TGI [7]: > 100 µM
- TGI [4]: > 100 µM
- TGI [5]: > 100 µM
- TGI [8]: > 100 µM
- TGI [6]: > 100 µM

Structure (SMILES): Cc1cc(O)cc(C)c1/C=C/c1cncc(C(=O)OC(C)(C)C)c1
- GI50 [1]: 8.65 µM
- TGI [1]: 22.7 µM
- GI50 [2]: 12.6 µM
- TGI [2]: > 25 µM
- GI50 [3]: > 18.5 µM
- TGI [3]: > 25 µM
- GI50 [7]: 16.1 µM
- TGI [7]: > 25 µM
- GI50 [4]: 9.75 µM
- TGI [4]: > 25 µM
- GI50 [5]: > 25 µM
- TGI [5]: > 25 µM
- GI50 [8]: 15.2 µM
- TGI [8]: > 25 µM
- GI50 [6]: > 25 µM
- TGI [6]: > 25 µM

Structure (SMILES): CNCCCn1c2c(c3ccc(F)cc3c1=O)C(=O)c1cc(OC)cnc1-2
- GI50 [1]: 0.221 µM
- TGI [1]: 0.753 µM
- GI50 [2]: 0.211 µM
- TGI [2]: 1.34 µM
- GI50 [3]: 0.368 µM
- TGI [3]: 1.36 µM
- GI50 [7]: 0.228 µM
- TGI [7]: 0.674 µM
- GI50 [4]: 0.316 µM
- TGI [4]: 1.38 µM
- GI50 [5]: 1.15 µM
- TGI [5]: 4.17 µM
- GI50 [8]: 0.242 µM
- TGI [8]: 1.48 µM
- GI50 [6]: 0.0722 µM
- TGI [6]: 1.14 µM

Structure (SMILES): COc1ccc(C(=O)OC2C(OC3C(O)COC(O[C@H]4C[C@H]5[C@@H]6CC=C7C[C@@H](O)CC[C@]7(C)[C@H]6CC[C@]5(C)[C@H]4[C@H](C)C(=O)CCC(C)C)C3OC(C)=O)OCC(O)C2O)cc1 (some centres undefined)
- GI50 [2]: 1.11 µM
- TGI [2]: 28.3 µM
- GI50 [3]: < 0.003 µM
- TGI [3]: < 0.003 µM
- GI50 [7]: < 0.003 µM
- TGI [7]: 0.191 µM
- GI50 [4]: < 0.003 µM
- TGI [4]: < 0.003 µM
- GI50 [5]: 0.216 µM
- TGI [5]: 12.7 µM
- GI50 [8]: 0.00399 µM
- TGI [8]: 4.48 µM
- GI50 [6]: < 0.003 µM
- TGI [6]: 0.0194 µM

Structure (SMILES): COC(=O)[C@@H](OC)[C@@H]1Cc2cc3cc(OC4CC(OC5CC(O)C(O)C(C)O5)C(O)C(C)O4)c(C)c(O)c3c(O)c2C(=O)[C@H]1OC1CC(OC2CC(OC3CC(C)(O)C(O)C(C)O3)C(O)C(C)O2)C(O)C(C)O1 (some centres undefined)
- GI50 [1]: 0.0405 µM
- TGI [1]: 0.74 µM
- GI50 [2]: 0.0389 µM
- TGI [2]: > 16.5 µM
- GI50 [3]: 0.025 µM
- TGI [3]: 0.082 µM
- GI50 [7]: 0.0811 µM
- TGI [7]: > 16.5 µM
- GI50 [4]: 0.0263 µM
- TGI [4]: 0.0623 µM
- GI50 [5]: 0.0365 µM
- TGI [5]: 0.252 µM
- GI50 [8]: 0.0404 µM
- TGI [8]: 3.72 µM

Structure (SMILES): CCCCN1CCN(c2ccc3nc(-c4ccc5nc(-c6ccc(OCC)c(OCC)c6)[nH]c5c4)[nH]c3c2)CC1
- GI50 [1]: 0.704 µM
- TGI [1]: 3.18 µM
- GI50 [3]: 1.26 µM
- TGI [3]: 2.56 µM
- GI50 [7]: 1.33 µM
- TGI [7]: 3.27 µM
- GI50 [8]: 1.42 µM
- TGI [8]: 2.99 µM
- GI50 [6]: 0.231 µM
- TGI [6]: 1.52 µM

Structure (SMILES): Cn1c(C(C)(C)OC(=O)Oc2ccccc2)cnc1[N+](=O)[O-]
- TGI [1]: > 100 µM
- TGI [2]: > 100 µM
- TGI [3]: > 100 µM
- TGI [7]: > 100 µM
- TGI [4]: > 100 µM
- TGI [8]: > 100 µM
- TGI [6]: > 100 µM

Structure (SMILES): CCN1C(=O)N(CC)C2C1NN=c1s/c(=C\c3cccc([N+](=O)[O-])c3)c(=O)n12 (centres undefined)
- GI50 [1]: 0.0496 µM
- TGI [1]: 0.21 µM
- GI50 [2]: 0.149 µM
- TGI [2]: > 100 µM
- GI50 [3]: 0.0397 µM
- TGI [3]: 0.396 µM
- GI50 [4]: 0.0708 µM
- TGI [4]: > 100 µM
- GI50 [5]: 0.229 µM
- TGI [5]: > 100 µM
- GI50 [8]: 0.0404 µM
- TGI [8]: > 100 µM
- GI50 [6]: 0.0663 µM
- TGI [6]: 0.538 µM

Structure (SMILES): CCN(CC)c1ccc(/C=C/C=C(/C#N)C(N)=S)cc1
- GI50 [1]: 2.53 µM
- TGI [1]: 18.9 µM
- GI50 [2]: 7.56 µM
- TGI [2]: 75.2 µM
- GI50 [3]: 12.3 µM
- TGI [3]: 31.3 µM
- GI50 [7]: > 100 µM
- TGI [7]: > 100 µM
- GI50 [5]: 6.46 µM
- TGI [5]: > 100 µM
- GI50 [8]: 9.6 µM
- TGI [8]: > 100 µM
- GI50 [6]: 7.13 µM
- TGI [6]: > 100 µM

Structure (SMILES): COc1ccc(C#CC2=C(c3cc(OC)c(OC)c(OC)c3)C(=O)OC2)cc1
- GI50 [1]: 4.48 µM
- TGI [1]: > 50 µM
- GI50 [3]: 1.29 µM
- TGI [3]: 3.26 µM
- GI50 [4]: 6.77 µM
- TGI [4]: 26.7 µM
- GI50 [8]: 1.63 µM
- TGI [8]: 27.4 µM
- GI50 [6]: 4.15 µM
- TGI [6]: > 50 µM

Structure (SMILES): CCCC#CCOC(=O)c1cc([N+](=O)[O-])cc([N+](=O)[O-])c1
- TGI [1]: > 100 µM
- TGI [2]: > 100 µM
- TGI [3]: > 100 µM
- TGI [7]: > 100 µM
- TGI [5]: > 100 µM
- TGI [8]: > 100 µM
- TGI [6]: > 100 µM

Structure (SMILES): O=C(COc1ccc(-c2nc3cc(Cl)c(Cl)cc3[nH]2)cc1)N=Nc1c(O)[nH]c2ccccc12
- GI50 [1]: > 100 µM
- TGI [1]: > 100 µM
- GI50 [2]: 3.85 µM
- TGI [2]: > 100 µM
- GI50 [3]: 2.65 µM
- TGI [3]: 24.2 µM
- GI50 [7]: 2.28 µM
- TGI [7]: 9.88 µM
- GI50 [4]: 2.71 µM
- TGI [4]: 9.77 µM
- GI50 [5]: 1.35 µM
- TGI [5]: 3.75 µM
- GI50 [6]: 2.29 µM
- TGI [6]: > 100 µM

Structure (SMILES): Cc1cc2c(=O)[nH]c(N)nc2nc1C
- TGI [1]: > 100 µM
- TGI [2]: > 100 µM
- TGI [7]: > 100 µM
- TGI [4]: > 100 µM
- TGI [8]: > 100 µM
- TGI [6]: > 100 µM

Structure (SMILES): O=S(=O)(NCCO)c1cc[c]([Sb](=[O])([OH])[OH])cc1
- GI50 [1]: > 100 µM
- TGI [1]: > 100 µM
- GI50 [2]: > 100 µM
- TGI [2]: > 100 µM
- GI50 [4]: > 100 µM
- TGI [4]: > 100 µM
- GI50 [5]: > 100 µM
- TGI [5]: > 100 µM
- GI50 [8]: > 100 µM
- TGI [8]: > 100 µM

Structure (SMILES): CCc1ncnc2cc(OCC3CO3)c(OC)cc12 (centres undefined)
- TGI [2]: 16.7 µM
- TGI [3]: 25.2 µM
- TGI [7]: 73.6 µM
- TGI [4]: 18.7 µM
- TGI [8]: 49.3 µM
- TGI [6]: 21.8 µM

Structure (SMILES): CC/C=C\C[C@H](O)C/C=C1/C(=O)C=C[C@@H]1C/C=C\CCCC(=O)NC
- GI50 [1]: 1.7 µM
- TGI [1]: 7.24 µM
- GI50 [2]: 2.33 µM
- TGI [2]: 8.5 µM
- GI50 [7]: 2.9 µM
- TGI [7]: 8.54 µM
- GI50 [4]: 1.67 µM
- TGI [4]: 3.17 µM
- GI50 [5]: 1.82 µM
- TGI [5]: 3.35 µM
- GI50 [8]: 1.36 µM
- TGI [8]: 2.79 µM
- GI50 [6]: 1.71 µM
- TGI [6]: 3.93 µM

Structure (SMILES): C[n+]1c(/C=C/c2ccc(/C=N/NC(=O)c3ccc(C(=O)N/N=C/c4ccc(/C=C/c5cn6ccccc6[n+]5C)cc4)cc3)cc2)cn2ccccc21
- TGI [1]: 67.4 µM
- TGI [2]: > 100 µM
- TGI [3]: > 100 µM
- TGI [7]: > 100 µM
- TGI [5]: > 100 µM
- TGI [8]: > 100 µM
- TGI [6]: > 100 µM

Structure (SMILES): COc1cc(NC(C)CCCN)c2ncccc2c1Sc1ccc(Cl)cc1 (centres undefined)
- GI50 [1]: 2.05 µM
- TGI [1]: 3.88 µM
- GI50 [2]: 1.62 µM
- TGI [2]: 3.06 µM
- GI50 [7]: 1.65 µM
- TGI [7]: 3.08 µM
- GI50 [4]: 1.7 µM
- TGI [4]: 3.07 µM
- GI50 [5]: 1.75 µM
- TGI [5]: 3.17 µM
- GI50 [8]: 1.77 µM
- TGI [8]: 3.27 µM
- GI50 [6]: 1.67 µM
- TGI [6]: 3.03 µM

Structure (SMILES): O=C(Nc1cccc(-n2cc(-c3ccncc3)c(-c3ccc(O)c(Cl)c3)n2)c1)c1ccc(Cl)c(Cl)c1
- GI50 [2]: 23.1 µM
- TGI [2]: > 100 µM
- GI50 [3]: 3.47 µM
- TGI [3]: > 100 µM
- GI50 [7]: 42.3 µM
- TGI [7]: > 100 µM
- GI50 [5]: 40.6 µM
- TGI [5]: > 100 µM
- GI50 [8]: 5.44 µM
- TGI [8]: > 100 µM
- GI50 [6]: 62.2 µM
- TGI [6]: > 100 µM

— PubChem BioAssay (NCI)
